Experimental data: ChEMBL document CHEMBL4152288, “Medicinal Chemistry and Use of Myosin II Inhibitor ( S)-Blebbistatin and Its Derivatives” (J Med Chem, 2018)
pIC50: −log10 of the molar value. Values after ≈ are worked out from the molar mass of the structure shown.

Columns and labels:
Myosin-2 heavy chain [1] = target: T1, Myosin-2 heavy chain (Dictyostelium discoideum, UniProt P08799); assay: Inhibition of Dictyostelium discoideum myosin 2 ATPase activity by NADH-coupled assay
Oryctolagus cuniculus [2] = species: Oryctolagus cuniculus; assay: Inhibition of rabbit skeletal myosin 2 ATPase activity at 50 uM relative to control
[3] = target: Myosin-2 heavy chain (Dictyostelium discoideum) (UniProt P08799); assay: Inhibition of Dictyostelium discoideum myosin 2 ATPase activity at 50 uM relative to control
Oryctolagus cuniculus [4] = species: Oryctolagus cuniculus; assay: Inhibition of rabbit skeletal myosin 2 ATPase activity at 5 uM relative to control
[5] = Inhibition of human myosin 2a ATPase activity
[6] = Steady state aqueous solubility of the compound in 0.1 % DMSO buffer at 25 degC; type: physicochemical; settings: aqueous buffer with 0.1% DMSO
[7] = Steady state aqueous solubility of the compound in 10 % DMSO buffer up to 240 mins; type: physicochemical; settings: 4 h
DU-145 [8] = assay: Cytotoxicity against human DU145 cells assessed as cell death at 200 uM after 3 hrs relative to control; type: functional
LNCaP [9] = assay: Cytotoxicity against human LNCAP cells assessed as cell death at 200 uM after 3 hrs relative to control; type: functional
U-87 MG [10] = assay: Cytotoxicity against human U87 cells assessed as cell death at 200 uM after 24 hrs relative to control; type: functional, U-87MG ATCC
PANC-1 = assay: Cytotoxicity against human PANC1 cells assessed as cell death at 400 uM after 24 hrs; type: functional
U-87 MG [11] = assay: Cytotoxicity against human U87 cells assessed as cell death at 200 uM after 3 hrs relative to control; type: functional, U-87MG ATCC
LNCaP [12] = assay: Cytotoxicity against human LNCAP cells assessed as cell death at 200 uM after 24 hrs relative to control; type: functional
[13] = Cytotoxicity against human Fem-X cells assessed as cell death at 200 uM after 24 hrs relative to control; type: functional
BXPC-3 = assay: Cytotoxicity against human BxPC3 cells assessed as cell death at 400 uM after 24 hrs; type: functional
MIA PaCa-2 = assay: Cytotoxicity against human MIAPaCa2 cells assessed as cell death at 400 uM after 24 hrs; type: functional
DU-145 [14] = assay: Cytotoxicity against human DU145 cells assessed as cell death at 200 uM after 24 hrs relative to control; type: functional
Capan-2 = assay: Cytotoxicity against human Capan2 cells assessed as cell death at 400 uM after 24 hrs; type: functional
[15] = Toxicity in zebrafish embryo assessed as mortality at 10 uM in presence 0.4 uJ/cm2 of irradiation measured after 36 hrs relative to control; type: organism-based, Danio rerio; settings: zebrafish embryos, read-out: Activity
[16] = Cytotoxicity against human Fem-X cells assessed as cell death at 200 uM after 3 hrs relative to control; type: functional
[17] = Cytotoxicity against F11-hTERT cells (unknown origin) assessed as cell death at 200 uM after 24 hrs relative to control; type: functional
[18] = Cytotoxicity against F11-hTERT cells (unknown origin) assessed as cell death at 200 uM after 3 hrs relative to control; type: functional
[19] = Toxicity in Dictyostelium discoideum assessed as mortality at 20 uM after 3 days relative to control; type: organism-based; settings: Dictyostelium discoideum cells, read-out: Activity
HeLa = assay: Cytotoxicity against human HeLa cells assessed as cell death at 20 uM measured after 3 days by trypan blue based light microscopy relative to control
Unconventional myosin-X = Unconventional myosin-X (Bos taurus, UniProt P79114); assay: Inhibition of bovine myosin x by NADH-coupled spectrophotometric analysis
Unconventional myosin-Ib = Unconventional myosin-Ib (Rattus norvegicus, UniProt Q05096); assay: Inhibition of rat myosin 1b by NADH-coupled spectrophotometric analysis
Unconventional myosin-XV = Unconventional myosin-XV (Homo sapiens, UniProt Q9UKN7); assay: Inhibition of human myosin 15 by NADH-coupled spectrophotometric analysis
[20] = Inhibition of chicken smooth muscle myosin 2 ATPase activity preincubated for 60 mins followed by ATP addition measured after 10 mins by malachite green based assay
[21] = Inhibition of Bos taurus smooth muscle myosin 2 ATPase activity
[22] = target: Myosin-2 heavy chain, non muscle (Acanthamoeba castellanii, UniProt P05659); assay: Inhibition of dephosphorylated Acanthamoeba non muscle myosin 2 by NADH-coupled spectrophotometric analysis
[23] = Inhibition of Meleagris gallopavo smooth muscle myosin 2 ATPase activity
[24] = Inhibition of bay scallop striated muscle myosin heavy chain
Myosin-7 = Myosin-7 (Sus scrofa, UniProt P79293); assay: Inhibition of pig beta cardiac myosin 2 by NADH-coupled spectrophotometric analysis
Myosin-14 = Myosin-14 (Mus musculus, UniProt Q6URW6); assay: Inhibition of mouse non-muscle myosin 2c
Unconventional myosin-Va = Unconventional myosin-Va (Mus musculus, UniProt Q99104); assay: Inhibition of mouse myosin 5a by NADH-coupled spectrophotometric analysis
[25] = target: Nonmuscle myosin heavy chain (Gallus gallus, UniProt Q789A4); assay: Inhibition of chicken non-muscle myosin 2b by NADH-coupled spectrophotometric analysis
Myosin-9 = Myosin-9 (Homo sapiens, UniProt P35579); assay: Inhibition of human non-muscle myosin 2a
Myosin-4 = Myosin-4 (Oryctolagus cuniculus, UniProt Q28641); assay: Inhibition of rabbit skeletal muscle myosin 2
[26] = target: Myosin heavy chain, non-muscle (Drosophila melanogaster, UniProt Q99323); assay: Inhibition of fruit fly non-muscle myosin 2
Myosin-10 = Myosin-10 (Homo sapiens, UniProt P35580); assay: Inhibition of human non-muscle myosin 2b
Myosin IC heavy chain = Myosin IC heavy chain (Acanthamoeba castellanii, UniProt P10569); assay: Inhibition of dephosphorylated Acanthamoeba […] myosin 1c by NADH-coupled spectrophotometric analysis
Myosin-2 heavy chain [27] = target: T1, Myosin-2 heavy chain; assay: Inhibition of Dictyostelium discoideum myosin 2 ATPase activity

Sequence of Myosin-2 heavy chain (Dictyostelium discoideum) (P08799 whole entry): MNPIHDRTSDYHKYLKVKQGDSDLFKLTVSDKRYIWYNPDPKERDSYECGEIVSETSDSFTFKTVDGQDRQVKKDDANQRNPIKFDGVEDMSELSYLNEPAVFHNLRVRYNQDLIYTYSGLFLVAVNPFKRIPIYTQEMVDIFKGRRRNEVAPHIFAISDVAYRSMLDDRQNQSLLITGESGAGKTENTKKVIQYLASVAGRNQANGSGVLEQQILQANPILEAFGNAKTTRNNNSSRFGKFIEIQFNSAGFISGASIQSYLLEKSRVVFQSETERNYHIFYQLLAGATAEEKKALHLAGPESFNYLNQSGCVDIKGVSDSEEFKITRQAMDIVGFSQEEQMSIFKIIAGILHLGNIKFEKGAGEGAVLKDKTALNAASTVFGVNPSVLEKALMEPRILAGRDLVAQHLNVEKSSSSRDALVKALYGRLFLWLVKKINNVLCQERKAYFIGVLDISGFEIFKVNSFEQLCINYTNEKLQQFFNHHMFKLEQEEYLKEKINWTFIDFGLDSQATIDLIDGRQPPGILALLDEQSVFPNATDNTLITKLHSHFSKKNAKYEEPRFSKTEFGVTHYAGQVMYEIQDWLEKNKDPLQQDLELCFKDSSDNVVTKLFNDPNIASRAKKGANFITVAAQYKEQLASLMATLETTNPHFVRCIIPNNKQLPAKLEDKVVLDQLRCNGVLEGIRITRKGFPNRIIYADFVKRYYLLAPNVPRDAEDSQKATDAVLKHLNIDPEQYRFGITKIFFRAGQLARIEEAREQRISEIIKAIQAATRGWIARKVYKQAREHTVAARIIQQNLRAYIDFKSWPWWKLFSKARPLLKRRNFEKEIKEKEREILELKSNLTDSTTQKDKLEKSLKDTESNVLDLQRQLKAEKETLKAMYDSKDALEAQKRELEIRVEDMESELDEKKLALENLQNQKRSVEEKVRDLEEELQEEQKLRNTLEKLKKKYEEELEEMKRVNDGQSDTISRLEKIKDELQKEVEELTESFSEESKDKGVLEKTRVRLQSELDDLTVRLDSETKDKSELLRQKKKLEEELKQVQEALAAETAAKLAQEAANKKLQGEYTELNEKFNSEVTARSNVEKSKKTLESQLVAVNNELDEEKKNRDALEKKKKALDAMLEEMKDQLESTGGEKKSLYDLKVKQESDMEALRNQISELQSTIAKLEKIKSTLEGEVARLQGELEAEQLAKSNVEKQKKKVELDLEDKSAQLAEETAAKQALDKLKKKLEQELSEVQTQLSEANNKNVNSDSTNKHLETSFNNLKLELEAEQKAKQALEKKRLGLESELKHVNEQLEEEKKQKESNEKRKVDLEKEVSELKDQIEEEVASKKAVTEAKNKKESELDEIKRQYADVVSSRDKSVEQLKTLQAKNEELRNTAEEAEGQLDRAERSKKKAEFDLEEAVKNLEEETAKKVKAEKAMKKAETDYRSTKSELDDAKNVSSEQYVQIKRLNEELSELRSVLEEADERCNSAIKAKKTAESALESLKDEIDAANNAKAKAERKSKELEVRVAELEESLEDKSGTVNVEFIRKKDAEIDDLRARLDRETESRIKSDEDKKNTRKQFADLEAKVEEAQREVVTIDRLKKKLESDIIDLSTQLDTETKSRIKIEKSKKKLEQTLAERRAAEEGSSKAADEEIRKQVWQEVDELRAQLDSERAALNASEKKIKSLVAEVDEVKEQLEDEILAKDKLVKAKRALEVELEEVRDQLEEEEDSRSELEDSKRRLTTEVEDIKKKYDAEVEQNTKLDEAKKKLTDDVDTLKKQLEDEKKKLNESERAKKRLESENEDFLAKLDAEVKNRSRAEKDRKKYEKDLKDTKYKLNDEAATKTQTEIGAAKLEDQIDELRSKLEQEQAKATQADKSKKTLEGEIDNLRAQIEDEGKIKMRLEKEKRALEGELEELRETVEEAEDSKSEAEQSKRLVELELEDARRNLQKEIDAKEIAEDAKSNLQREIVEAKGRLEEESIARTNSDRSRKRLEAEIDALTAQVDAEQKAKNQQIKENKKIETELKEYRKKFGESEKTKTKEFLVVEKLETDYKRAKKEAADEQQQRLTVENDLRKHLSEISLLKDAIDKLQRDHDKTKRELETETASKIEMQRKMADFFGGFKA
T1 sequence (P08799 whole entry): as above
Sequence of Myosin-4 (Q28641 whole entry): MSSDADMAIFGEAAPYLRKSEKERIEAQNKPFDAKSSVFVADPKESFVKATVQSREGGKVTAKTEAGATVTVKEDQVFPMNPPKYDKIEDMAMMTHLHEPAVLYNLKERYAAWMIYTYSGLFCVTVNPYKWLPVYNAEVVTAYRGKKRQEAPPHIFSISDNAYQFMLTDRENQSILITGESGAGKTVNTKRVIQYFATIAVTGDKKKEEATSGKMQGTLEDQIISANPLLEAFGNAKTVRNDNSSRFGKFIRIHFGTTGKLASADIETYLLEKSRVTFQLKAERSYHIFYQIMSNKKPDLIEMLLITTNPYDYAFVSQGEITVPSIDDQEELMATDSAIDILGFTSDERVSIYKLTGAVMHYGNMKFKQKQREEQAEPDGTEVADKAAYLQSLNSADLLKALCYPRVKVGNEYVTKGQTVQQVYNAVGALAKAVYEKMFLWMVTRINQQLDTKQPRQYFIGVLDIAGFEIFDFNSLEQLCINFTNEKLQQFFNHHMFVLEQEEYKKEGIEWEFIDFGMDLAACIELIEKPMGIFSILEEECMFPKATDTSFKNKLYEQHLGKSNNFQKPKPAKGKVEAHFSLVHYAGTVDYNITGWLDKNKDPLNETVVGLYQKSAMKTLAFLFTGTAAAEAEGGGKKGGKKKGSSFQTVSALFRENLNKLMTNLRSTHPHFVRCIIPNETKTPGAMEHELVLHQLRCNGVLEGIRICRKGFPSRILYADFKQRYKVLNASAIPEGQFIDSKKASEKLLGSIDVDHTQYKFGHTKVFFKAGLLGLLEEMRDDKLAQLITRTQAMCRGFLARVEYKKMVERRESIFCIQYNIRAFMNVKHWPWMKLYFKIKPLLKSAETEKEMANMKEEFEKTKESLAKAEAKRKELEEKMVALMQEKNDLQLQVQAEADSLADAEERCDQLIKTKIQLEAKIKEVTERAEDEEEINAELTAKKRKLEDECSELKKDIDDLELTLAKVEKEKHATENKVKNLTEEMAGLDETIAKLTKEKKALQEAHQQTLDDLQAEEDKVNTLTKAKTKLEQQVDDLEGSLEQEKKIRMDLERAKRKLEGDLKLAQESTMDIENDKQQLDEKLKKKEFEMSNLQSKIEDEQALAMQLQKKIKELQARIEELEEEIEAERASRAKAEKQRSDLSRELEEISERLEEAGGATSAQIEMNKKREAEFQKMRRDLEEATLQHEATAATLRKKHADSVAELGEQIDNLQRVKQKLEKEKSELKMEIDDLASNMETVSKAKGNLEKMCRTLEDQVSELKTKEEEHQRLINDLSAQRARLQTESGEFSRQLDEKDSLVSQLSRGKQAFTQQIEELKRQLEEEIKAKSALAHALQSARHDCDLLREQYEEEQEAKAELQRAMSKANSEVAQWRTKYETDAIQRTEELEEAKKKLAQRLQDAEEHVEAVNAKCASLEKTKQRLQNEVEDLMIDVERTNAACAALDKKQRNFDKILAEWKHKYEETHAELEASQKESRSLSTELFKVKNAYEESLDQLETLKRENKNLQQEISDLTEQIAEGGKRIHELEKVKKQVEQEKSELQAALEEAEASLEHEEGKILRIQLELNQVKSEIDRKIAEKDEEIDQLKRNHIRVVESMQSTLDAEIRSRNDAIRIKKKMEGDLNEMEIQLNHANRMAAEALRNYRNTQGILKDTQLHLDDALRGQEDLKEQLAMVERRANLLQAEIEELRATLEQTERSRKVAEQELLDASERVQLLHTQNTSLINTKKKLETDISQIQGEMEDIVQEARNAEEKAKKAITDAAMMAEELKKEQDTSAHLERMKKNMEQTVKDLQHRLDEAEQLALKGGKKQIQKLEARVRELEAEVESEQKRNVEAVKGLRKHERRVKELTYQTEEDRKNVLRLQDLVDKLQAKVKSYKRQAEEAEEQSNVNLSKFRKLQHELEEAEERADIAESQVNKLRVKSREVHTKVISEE

Work on `Cc1ccc2c(c1)C(=O)[C@]1(O)CCN(c3ccc(N=[N+]=[N-])cc3)C1=N2` yielded a pIC50 (Myosin-2 heavy chain [1]) of 5.28.

For `Cc1cccc2c1N=C1N(c3ccccc3)CC[C@@]1(O)C2=O`, the inhibition (Oryctolagus cuniculus [2]) was 72%, the inhibition [3] was 35% and the inhibition (Oryctolagus cuniculus [4]) was 31%.

`O=C1c2ccc([N+](=O)[O-])cc2N=C2N(c3ccccc3)CC[C@@]12O` gave a pIC50 [5] of 4.55.

`Cc1ccc2c(c1)C(=O)[C@]1(O)CCN(c3ccccc3)C1=N2` gave a solubility [6] of 7 to 11 µM (≈ 2.05 to 3.22 µg/mL), a solubility [7] of 80 µM (≈ 23.4 µg/mL) and an Activity (DU-145 [8]) of 30%. The Activity (LNCaP [9]) was 10%, the Activity (U-87 MG [10]) was 65% and the Activity (PANC-1) was 0%. For the same compound, the Activity (U-87 MG [11]) was 40%, the Activity (LNCaP [12]) was 96% and the Activity [13] was 100%. The Activity (BXPC-3) was 25%, the Activity (MIA PaCa-2) was 20% and the Activity (DU-145 [14]) was 90%. It also gave an Activity (Capan-2) of 45%, a mortality at 36 h, 10 µM [15] of 100% and an Activity [16] of 30%. It also gave an Activity [17] of 85%, an Activity [18] of 30% and a mortality at 72 h, 20 µM [19] of 0%. The Activity (HeLa) was 90%.

With `O=C1c2ccccc2N=C2N(c3ccccc3)CC[C@@]12O` the inhibition (Oryctolagus cuniculus [2]) was 95%, the inhibition [3] was 88% and the inhibition (Oryctolagus cuniculus [4]) was 84%.

With `Cc1ccc2c(c1)N=C1N(c3ccccc3)CC[C@@]1(O)C2=O` the inhibition (Oryctolagus cuniculus [2]) was 94%, the inhibition [3] was 90% and the inhibition (Oryctolagus cuniculus [4]) was 86%.

Work on `Cc1cccc2c1C(=O)[C@]1(O)CCN(c3ccccc3)C1=N2` yielded an inhibition (Oryctolagus cuniculus [2]) of 95%, an inhibition [3] of 88% and an inhibition (Oryctolagus cuniculus [4]) of 86%.

Compound `Cc1ccc2c(c1)C(=O)C1(O)CCN(c3ccccc3)C1=N2` (racemic) has a pIC50 (Unconventional myosin-X) of under 3.82, a pIC50 (Unconventional myosin-Ib) of under 3.82 and a pIC50 (Unconventional myosin-XV) of under 4.00. The pIC50 [20] was 4.63 to 5.26, the pIC50 [21] was 4.96 to 5.37 and the pIC50 [22] was 4.08. For the same compound, the pIC50 [23] was 4.10, the pIC50 [24] was 5.64 and the pIC50 (Myosin-7) was 5.92. For the same compound, the pIC50 (Myosin-14) was 5.49, the pIC50 (Unconventional myosin-Va) was under 3.82 and the pIC50 [25] was 5.74. It also gave a pIC50 (Myosin-9) of 4.85 to 5.40, a pIC50 (Myosin-4) of 5.36 to 6.66 and a pIC50 [26] of under 3.70. It also gave a pIC50 (Myosin-10) of 5.34 and a pIC50 (Myosin IC heavy chain) of under 3.82.

For `Cc1ccc2c(c1)C(=O)[C@]1(O)CCN(c3ccc(Cl)cc3)C1=N2`, the pIC50 (Myosin-2 heavy chain [27]) was 5.72.

Compound `Cc1ccc2c(c1)C(=O)[C@]1(O)CCN(c3ccc([N+](=O)[O-])cc3)C1=N2` has a pIC50 (Myosin-2 heavy chain [1]) of 5.64 and a pIC50 (Myosin-4) of 6.40.
